The values below come from patent US7109197B2, “N-phenyl-4-(4-pyridyl)-2-pyrimidineamine derivatives” (Syngenta Crop Protection, Inc., priority 2000, dated 2006).

Common to all, as to assay type: in vivo
In assay [1] the test system is Pyrenophora teres (Helminthosporium). Nature of the assay: Assay B-10: Effect against Pyrenophora teres (Helminthosporium)/barley (net blotch on barley). The following applies: Pyrenophora teres on barley cv. Regina; 0.02% active substance, spray. As to the method: Assay B-10: Effect Against Pyrenophora teres (Helminthosporium)/Barley (Net Blotch on Barley) 1 week old barley plants cv. Regina are treated with a formulated testcompound (0.02% active substance) in a spray chamber. Two days after application barley plants are inoculated by spraying a spore suspension (3×10^4 conidia/ml) on the test plants. After an incubation period of 2 days at 20° C. and 95% r.h. plants are kept for 2 days at 20° C. and 60% r.h. in a greenhouse. The disease incidence is assessed 4 days after inoculation.

Assay [2] relates to Septoria nodorum. Nature of the assay: Assay B-12: Effect against Septoria nodorum/wheat (Septoria leaf spot on wheat). The following applies: Septoria nodorum on wheat cv. Arina; 0.02% active substance, spray. As for the experimental part: Assay B-12: Effect Against Septoria nodorum/Wheat (Septoria Leaf Spot on Wheat) 1 week old wheat plants cv. Arina are treated with a formulated test compound (0.02% active substance) in a spray chamber. One day after application wheat plants are inoculated by spraying a spore suspension (5×10^5 conidia/ml) on the test plants. After an incubation period of 1 day at 20° C. and 95% r.h. plants are kept for 10 days at 20° C. and 60% r.h. in a greenhouse. The disease incidence is assessed 11 days after inoculation.

Assay [3] deals with Botrytis cinerea. In words: Assay B-8: Effect against Botrytis cinerea/tomato (Botrytis on tomatoes). The following applies: Botrytis cinerea on tomato cv. Roter Gnom; 0.02% active substance, spray. As to the method: Assay B-8: Effect Against Botrytis cinerea/Tomato (Botrytis on Tomatoes) 4 week old tomato plants cv. Roter Gnom are treated with the formulated testcompound 0.02% active substance) in a spray chamber. Two days after application tomato plants are inoculated by spraying a spore suspension (1×10^5 conidia/ml) on the test plants. After an incubation period of 4 days at 20° C. and 95% r. h. in a greenhouse the disease incidence is assessed.

Assay [4] relates to Botrytis cinerea. In words: Assay B-7: Botrytis cinerea/grape (Botrytis on grapes). The following applies: Botrytis cinerea on grape seedlings cv. Gutedel; 0.02% active substance, spray. As for the experimental part: Assay B-7: Botrytis cinerea/Grape (Botrytis on Grapes) 5 week old grape seedlings cv. Gutedel are treated with the formulated testcompound (0.02% active substance) in a spray chamber. Two days after application grape plants are inoculated by spraying a spore suspension (1×10^6 conidia/ml) on the test plants. After an incubation period of 4 days at 21° C. and 95% r. h. in a greenhouse the disease incidence is assessed.

Take `NCCNc1cc(-c2ccnc(Nc3cccc(Cl)c3)n2)ccn1` [Compound 1]: the B10 activity result in assay [1] is recorded as “+ (the activity observed in the corresponding test system is 70% or more)”.

Consider `Clc1cccc(Nc2nccc(-c3ccnc(NC4CCOC4)c3)n2)c1` (stereo not drawn) [Compound 2], for which the B12 activity entry in assay [2] is reported as “+ (the activity observed in the corresponding test system is 70% or more)”. In addition, the B10 activity result in assay [1] is “+ (the activity observed in the corresponding test system is 70% or more)”.

As for `O=C(O)CNc1cc(-c2ccnc(Nc3cccc(Cl)c3)n2)ccn1` [Compound 3], the B12 activity entry in assay [2] is reported as “+ (the activity observed in the corresponding test system is 70% or more)”. The B10 activity result in assay [1] is “+ (the activity observed in the corresponding test system is 70% or more)”. Further, the B8 activity result in assay [3] is “+ (the activity observed in the corresponding test system is 70% or more)”.

With `CC(CCn1ccnc1)Nc1cc(-c2ccnc(Nc3cccc(Cl)c3)n2)ccn1` (stereo not drawn) [Compound 16], the B12 activity entry in assay [2] is given as “+ (the activity observed in the corresponding test system is 70% or more)”. In assay [1], the B10 activity entry is on record as “+ (the activity observed in the corresponding test system is 70% or more)”. The B8 activity entry in assay [3] is listed as “+ (the activity observed in the corresponding test system is 70% or more)”.

With `CC(CCN(C)C)Nc1cc(-c2ccnc(Nc3cccc(Cl)c3)n2)ccn1` (stereo not drawn) [Compound 19], the B8 activity entry in assay [3] is reported as “+ (the activity observed in the corresponding test system is 70% or more)”.

Consider `CCOCCNc1cc(-c2ccnc(Nc3cccc(Cl)c3)n2)ccn1` [Compound 26], for which the B12 activity result in assay [2] is given as “+ (the activity observed in the corresponding test system is 70% or more)”. Besides, the B10 activity entry in assay [1] is “+ (the activity observed in the corresponding test system is 70% or more)”. In addition, the B7 activity entry in assay [4] is “+ (the activity observed in the corresponding test system is 70% or more)”. Moreover, the B8 activity result in assay [3] is reported as “+ (the activity observed in the corresponding test system is 70% or more)”.

As for `CC(CCNc1cc(-c2ccnc(Nc3cccc(Cl)c3)n2)ccn1)n1ccnc1` (stereo not drawn) [Compound 36], the B10 activity result in assay [1] is “+ (the activity observed in the corresponding test system is 70% or more)”.

As to `NCCCNc1cc(-c2ccnc(Nc3cccc(Cl)c3)n2)ccn1` [Compound 42], the B12 activity entry in assay [2] is recorded as “+ (the activity observed in the corresponding test system is 70% or more)”. For the same molecule, the B10 activity entry in assay [1] is “+ (the activity observed in the corresponding test system is 70% or more)”. The B8 activity entry in assay [3] is given as “+ (the activity observed in the corresponding test system is 70% or more)”.

For `CS(=O)(=O)O.NCCCNc1cc(-c2ccnc(Nc3cccc(Cl)c3)n2)ccn1` [Compound 48], the B12 activity entry in assay [2] is on record as “+ (the activity observed in the corresponding test system is 70% or more)”. Further, the B10 activity entry in assay [1] is recorded as “+ (the activity observed in the corresponding test system is 70% or more)”. The B8 activity result in assay [3] is on record as “+ (the activity observed in the corresponding test system is 70% or more)”.

Regarding `CCC(COC(C)=O)Nc1cc(-c2ccnc(Nc3cccc(Cl)c3)n2)ccn1` (stereo not drawn) [Compound 51], in assay [2], the B12 activity result was “+ (the activity observed in the corresponding test system is 70% or more)”. Moreover, in assay [1], the B10 activity entry was “+ (the activity observed in the corresponding test system is 70% or more)”.

As for `CC(=O)OCCNc1cc(-c2ccnc(Nc3cccc(Cl)c3)n2)ccn1` [Compound 52], the B12 activity entry in assay [2] is “+ (the activity observed in the corresponding test system is 70% or more)”. In addition, the B10 activity result in assay [1] was “+ (the activity observed in the corresponding test system is 70% or more)”.

`CCCC(COC(C)=O)Nc1cc(-c2ccnc(Nc3cccc(Cl)c3)n2)ccn1` (stereo not drawn) [Compound 53]: the B8 activity entry in assay [3] is “+ (the activity observed in the corresponding test system is 70% or more)”.

With `CCCCC(=O)Nc1cc(-c2ccnc(Nc3cccc(Cl)c3)n2)ccn1` [Compound 62], in assay [2], the B12 activity entry is given as “+ (the activity observed in the corresponding test system is 70% or more)”. Moreover, the B10 activity result in assay [1] is “+ (the activity observed in the corresponding test system is 70% or more)”.

With `CC(CCc1ccccn1)Nc1cc(-c2ccnc(Nc3cccc(Cl)c3)n2)ccn1` (stereo not drawn) [Compound 71], in assay [2], the B12 activity result is recorded as “+ (the activity observed in the corresponding test system is 70% or more)”. In addition, the B10 activity result in assay [1] is recorded as “+ (the activity observed in the corresponding test system is 70% or more)”.

As to `C[S+]([O-])CCNc1cc(-c2ccnc(Nc3cccc(Cl)c3)n2)ccn1` (stereo not drawn) [Compound 74], the B12 activity result in assay [2] is recorded as “+ (the activity observed in the corresponding test system is 70% or more)”.

For `CC(O)CNc1cc(-c2ccnc(Nc3cccc(Cl)c3)n2)ccn1` (stereo not drawn) [Compound 76], the B12 activity result in assay [2] was “+ (the activity observed in the corresponding test system is 70% or more)”. Moreover, the B10 activity entry in assay [1] was “+ (the activity observed in the corresponding test system is 70% or more)”.

Consider `Clc1cccc(Nc2nccc(-c3ccnc(NCc4ccco4)c3)n2)c1` [Compound 78], for which the B8 activity entry in assay [3] is “+ (the activity observed in the corresponding test system is 70% or more)”.

For the molecule `Clc1cccc(Nc2nccc(-c3ccnc(NCc4ccccn4)c3)n2)c1` [Compound 79], the B10 activity result in assay [1] is “+ (the activity observed in the corresponding test system is 70% or more)”. For the same molecule, the B8 activity entry in assay [3] is recorded as “+ (the activity observed in the corresponding test system is 70% or more)”.

For the molecule `Clc1cccc(Nc2nccc(-c3ccnc(NCC4CCOC4)c3)n2)c1` (stereo not drawn) [Compound 84], the B12 activity result in assay [2] was “+ (the activity observed in the corresponding test system is 70% or more)”. Besides, the B10 activity entry in assay [1] is on record as “+ (the activity observed in the corresponding test system is 70% or more)”. The B8 activity result in assay [3] is listed as “+ (the activity observed in the corresponding test system is 70% or more)”.

Take `COC(CNc1cc(-c2ccnc(Nc3cccc(Cl)c3)n2)ccn1)OC` [Compound 87]: the B12 activity entry in assay [2] is given as “+ (the activity observed in the corresponding test system is 70% or more)”. In assay [1], the B10 activity entry is given as “+ (the activity observed in the corresponding test system is 70% or more)”.

Take `Clc1cccc(Nc2nccc(-c3ccnc(NCCc4ccccn4)c3)n2)c1` [Compound 90]: the B10 activity result in assay [1] is reported as “+ (the activity observed in the corresponding test system is 70% or more)”. Besides, the B8 activity entry in assay [3] is on record as “+ (the activity observed in the corresponding test system is 70% or more)”.

Take `COCN(C)c1cc(-c2ccnc(Nc3cccc(Cl)c3)n2)ccn1` [Compound 91]: the B12 activity entry in assay [2] is listed as “+ (the activity observed in the corresponding test system is 70% or more)”. Moreover, in assay [1], the B10 activity entry was “+ (the activity observed in the corresponding test system is 70% or more)”.

For the molecule `O=C(Nc1cc(-c2ccnc(Nc3cccc(Cl)c3)n2)ccn1)C(F)(F)C(F)(F)F` [Compound 93], the B10 activity result in assay [1] is listed as “+ (the activity observed in the corresponding test system is 70% or more)”. Moreover, the B7 activity entry in assay [4] is listed as “+ (the activity observed in the corresponding test system is 70% or more)”. Moreover, the B8 activity result in assay [3] is on record as “+ (the activity observed in the corresponding test system is 70% or more)”.

For the molecule `Clc1cccc(Nc2nccc(-c3ccnc(NCCCOc4ncccn4)c3)n2)c1` [Compound 94], the B10 activity entry in assay [1] is given as “+ (the activity observed in the corresponding test system is 70% or more)”. In addition, the B8 activity entry in assay [3] is reported as “+ (the activity observed in the corresponding test system is 70% or more)”.

Take `CN(C)C=Nc1cc(-c2ccnc(Nc3cccc(Cl)c3)n2)ccn1` [Compound 97]: the B12 activity entry in assay [2] is “+ (the activity observed in the corresponding test system is 70% or more)”. The B10 activity result in assay [1] is on record as “+ (the activity observed in the corresponding test system is 70% or more)”. For the same molecule, the B8 activity result in assay [3] is given as “+ (the activity observed in the corresponding test system is 70% or more)”.

Regarding `CCN(COC)c1cc(-c2ccnc(Nc3cccc(Cl)c3)n2)ccn1` [Compound 98], in assay [1], the B10 activity result is “+ (the activity observed in the corresponding test system is 70% or more)”.

`CO[Si](CCCNc1cc(-c2ccnc(Nc3cccc(Cl)c3)n2)ccn1)(OC)OC` [Compound 100]: the B8 activity result in assay [3] is reported as “+ (the activity observed in the corresponding test system is 70% or more)”.

With `Clc1cccc(Nc2nccc(-c3ccnc(NCc4cccnc4)c3)n2)c1` [Compound 102], in assay [1], the B10 activity entry was “+ (the activity observed in the corresponding test system is 70% or more)”. Also, in assay [3], the B8 activity entry is reported as “+ (the activity observed in the corresponding test system is 70% or more)”.

As for `CCC(=O)OCCCNc1cc(-c2ccnc(Nc3cccc(Cl)c3)n2)ccn1` [Compound 106], the B12 activity entry in assay [2] is on record as “+ (the activity observed in the corresponding test system is 70% or more)”. The B10 activity entry in assay [1] was “+ (the activity observed in the corresponding test system is 70% or more)”. Besides, the B8 activity entry in assay [3] was “+ (the activity observed in the corresponding test system is 70% or more)”.
